This is an account of results in article PMC10198994 (Scientific Reports, 2023).

Data set [1] can be described thus: Static equilibrium solubility of HCQS in supercritical carbon dioxide (UV-vis spectrophotometer). Conditions: for solubility thermodynamic at 1 h: thermodynamic from solid, read-out: Equilibrium solubility, S. Type of data set: physicochemical. As to the method: SCF-solubility of the drugs was experimentally measured via two broad classes of saturated solution-based methods, where solubility measurement can be done either (1) statically or (2) dynamically. […] The solubilities were measured with the help of an equilibrium cell. Thermodynamically, the method employed may be regarded as an isobaric-isothermal method. All the measurements are taken by keeping system temperatures and pressures at the desired value with high precision (i.e., ± 0.1 K and ± 0.1 MPa). Complete details about the equipment and measurement procedures are presented elsewhere[15]–[35]. However, the description of the equipment and the methodology employed in establishing solubility data are briefly presented in this section. The scCO2 is pumped to the equilibrium cell and drug sample and scCO2 are thoroughly mixed and allowed to attain equilibrium. […] To ensure equilibrium solubility, the experiments are performed with fresh samples at various time intervals. […] For each sampling a 600 µL volume saturated sample is collected via a collection valve in a deionized water preloaded sample vial. After discharging of each sample, the sampling valve was cleaned with 1 ml of deionized water. Drug sample solubility is estimated with the following formula:1 y2=ndrug/ndrug+nCO2 where y2 is solubility of the drug in scCO2, ndrug and nCO2 are number of moles of the drug and CO2 in the sampling loop, respectively.
The following formulas are used in data conversion2 ndrug=Cs·Vs/Ms 3 nCO2=V1ρ1/MCO2 where Cs is concentration of the drug in g/L. V1 = 600 × 10^–6 L and Vs = 5 × 10^–3 L are sampling loop and vial volumes, respectively. Ms and MCO2 are drug and CO2 molecular weights, respectively. ρ1 is density of scCO2 at each experimental condition, as presented in Table 2.
Solubility is also described as4 S=CSVs/V1
The solubility and mole fraction relation is described as5 S=ρMs/MCO2y2/1-y2

A short description of data set [2]: Total, sublimation and solvation enthalpies of HCQS in scCO2 from Chrastil, reformulated Chrastil and Bartle et al. model constants. In kind it is physicochemical. An excerpt: In the year 1981, Josef Chrastil presented a model for the solubility of solids/liquids in SCF. The main basis of the model is a solvate complex formulation based on a simple reaction. According to Chrastil, solubility is explained by c2=c2(κ,ρ1,T) , where κ is association number, ρ1 is solvent density (scCO2) and T is temperature. Chrastil proposed Eq. (19)19 c2=ρ1κexpA1+B1/T
In the year 2009, Garlpati and Madras has reformulated Chrastil's model and it is expressed by Eq. (21), where solubility is explained by y2=y2κ^′,ρ1,T , in which κ^′ is association number, ρ1 is solvent density (scCO2) and T is temperature.21 y2=RTρ1/MScFf^∙^κ^′-1expA2+B2/T in Eq. (21), R denotes universal constant of ideal gas, MScF is molecular weight of solvent, f^∗ is reference pressure and A2 and B2 are the Reformulated model constants.
The solute sublimation enthalpy is calculated with Bartle et al., model and it is stated as23 lny2P/Pref=A4+B4/T+C4ρ1-ρref where A4 to C4 are the model constants. Using the constant B4 , sublimation enthalpy is calculated (i.e., ΔsubH=-B4R ).
Solid–liquid model requires enthalpy of fusion, molar volume and melting point of the solute. Enthalpy of fusion is estimated with the help Jain et al.[77], and molar volume of the solute is estimated with the help Immirzi and Perini method. The calculated molar enthalpy and molar volumes are 65,208 J mol^−1 and 3.306 × 10^–4 m^3 mol^−1, respectively. The melting temperature is obtained from the material safety data sheet as 240 °C. From Chrastil's model constant ( B1 ), total enthalpy is calculated ( B1 × R). From Bartle’s model constant ( B4 ), sublimation enthalpy is calculated ( ΔsubH=-B4R ). From the magnitude difference between total and sublimation enthalpies, solvation enthalpy is calculated. Similarly, from reformulated Chrastil's model constant ( B2 ) and Bartle’s model constant ( B4 ), combination solvation enthalpy is calculated. […] This may be due to a smaller number of parameters in the models; on the other hand, the correlating ability of the solvate complex models is quite good. […]

SMILES strings stand for the structures. Counter-ions that a name gives are not always drawn. Like-named read-outs stand apart in the source and are kept apart here. Marks after values point to notes of the source that are not given here.

Turning to `CCN(CCO)CCCC(C)Nc1ccnc2cc(Cl)ccc12` (centres unmarked) [HCQS, Hydroxychloroquine sulfate], the “rise in solubility when temperature is raised from 308 to 338 K” value was found to be 4.6 folds in data set [1] (12 MPa) and 3.8 folds in data set [1] (27 MPa). In addition, the solubility thermodynamic at 1 h in data set [1] (supercritical carbon dioxide (scCO2) in an equilibrium cell, scCO2, 308 K, 210 bar) is 93.9 µg/mL; in data set [1] (supercritical carbon dioxide (scCO2) in an equilibrium cell, scCO2, 308 K, 270 bar) it was 132 µg/mL; in data set [1] (supercritical carbon dioxide (scCO2) in an equilibrium cell, scCO2, 318 K, 120 bar) it was 40.9 µg/mL; in data set [1] (scCO2, 308 K, 150 bar) it was 35 µg/mL; in data set [1] (scCO2, 308 K, 180 bar), 49.7 µg/mL; in data set [1] (scCO2, 318 K, 150 bar), 80.6 µg/mL. For the same compound, the solubility thermodynamic at 1 h is 165 µg/mL in data set [1] (scCO2, 318 K, 210 bar); 210 µg/mL in data set [1] (scCO2, 318 K, 240 bar); 49.4 µg/mL in data set [1] (scCO2, 328 K, 120 bar); 103 µg/mL in data set [1] (scCO2, 328 K, 150 bar); 207 µg/mL in data set [1] (scCO2, 328 K, 210 bar); 356 µg/mL in data set [1] (scCO2, 328 K, 270 bar). For the same compound, the solubility thermodynamic at 1 h in data set [1] (scCO2, 338 K, 120 bar) worked out at 53.4 µg/mL; in data set [1] (scCO2, 338 K, 150 bar), 126 µg/mL; in data set [1] (scCO2, 338 K, 180 bar), 182 µg/mL; in data set [1] (scCO2, 338 K, 210 bar), 231 µg/mL; in data set [1] (scCO2, 338 K, 240 bar), 291 µg/mL; in data set [1] (scCO2, 338 K, 270 bar) it was 426 µg/mL. In addition, the “Enthalpy of sublimation ΔHsub” value in data set [2] (Bartle et al., model constant B4) is reported as ~89.1^c (approximate value) kJ/mol. For the same compound, the “Total Enthalpy, ΔHtotal” value in data set [2] (Chrastil's model constant B1) is 69.80^a kJ/mol; in data set [2] (Modified Chrastil's model constant B2) it was 62.00^b kJ/mol.
